According to patent US20120100204A1, “TGF-Beta Stimulating Agent Compositions and Combinations” (TCP INNOVATIONS LTD, priority 2007, published 2012):

Experiments:
tgfb2 mRNA = tgfb2 mRNA level by quantitative PCR in human aortic vascular smooth muscle cells; assay type: cell-based; settings: 24 hrs
Method: (1995) Cardiovasc. Res. 29:848-55). […] The cells were then incubated for either 24 hrs or 72 hrs depending on the experiment. All treatment conditions were established in triplicate. The level of mRNA for tgfb1, tgfb2 and tgfb3 were estimated by quantitative PCR. The media was removed and RNA was carefully prepared using the Ambion RNAqueous4PCR kit (Ambion#1914) in accordance with the manufacturer's instructions. The purity of the RNA and the quantity was assessed spectrophotometrically. […] This analysis results in both a gel-like image as well as electrophoretic data. Indications of RNA degradation are: (a) decreasing ratio of ribosomal bands (b) additional peaks bellow the ribosomal bands (c) Decrease in overall RNA signal (d) shift towards shorter fragments. […] Next, the RNA was converted to cDNA using the ABI High-Capacity cDNA Archive Kit, in accordance with manufacturer's instructions. […] Samples were vortexed to ensure thorough mixing. cDNA was aliquoted into ABI 384 well plates using a multi-channel pipette, 4.5 μl of sample into each well. Samples were assayed in triplicate (that is, nine determinations in total were made for each condition, being three separate assays on each of three replicate culture wells). The assay mix and Universal Master Mix were prepared and aliquoted across the 384 well plates 5.5 μl in each well, using a single channel pipette. […] Universal Master Mix=5 μl; cDNA=4.5 μl. […] Quantitative PCR was performed using several primer/probe sets. […] In all quantitative PCR experiments, several additional controls were included: firstly, a control for each sample is run with no reverse transcription to ensure the mRNA sample is not contaminated with genomic DNA (although the manual design probe/primer sets were all selected to cross an exon/exon boundary, ensuring no detectable amplicon is produced from genomic DNA templates). […]

[1] = test system: human aortic vascular smooth muscle cells; test: toxicity to cultured smooth muscle cells; assay type: cell-based
Method: The cells were cultured (37° C.; 5% CO2) in DMEM+20% foetal calf serum (FCS), and subcultured every 5 days at 1:2 dilution, using 0.02% trypsin/EDTA (Gibco).
For the experiments, the cells were subcultured into 12-well cluster plates at 1×10^5 cells/cm^2, and allowed to grow for 24 hrs. […] The cells were then incubated for either 24 hrs or 72 hrs depending on the experiment. All treatment conditions were established in triplicate.

[2] = test system: anti-carbohydrate antibodies; test: anti-carbohydrate antibody isotype profile in serum of men with coronary artery disease, direct ELISA; assay type: in vivo, human; settings: 3 months
Method: Blood samples were also taken at baseline, immediately prior to beginning the drug treatments, and also after 90 days. The blood was drawn from the antecubital fossa using 19-gauge butterfly needles, and dispensed into polypropylene tubes, where it was allowed to clot for between 2 and 3 hours at room temperature. The clot was released, and the sample spun (450×g; 4 mins), and the serum supernatant removed, aliquoted and stored frozen at −80° C. until analysed.
The level of anti-carbohydrate antibodies was measured by direct ELISA as previously described (Mosedale et al (2006) J. Immunol. Meth. 309:182-91). Briefly, Maxisop 96-well plates were coated with BSA-alpha-Gal (Glycorex) at 1 μg/well in 200 μl of Sodium Carbonate pH9.0 overnight at 4° C. After three quick washes with PBS, non-specific binding was blocked using 3% BSA in PBS at room temperature for 1 hour. After three further washes the serum was added at various dilutions ranging from neat to 1:100 dilution in PBS, then incubated for 2 hours at room temperature with shaking. The serum was then discarded, the plate washed 5 further times with PBS+0.1% Tween-20, and replicate strips (each containing a full range of dilutions of the same serum sample) were exposed to highly specific monoclonal antibodies to each isotype, including IgG1, IgG2, IgG3, IgG4, IgM, IgA, IgE and IgD, at 1 μg/ml in blocking buffer. After a further hour at room temperature with shaking, the antibody was discarded and the plate washed 3 further times with PBS/Tween, before being exposed to donkey anti-mouse IgG minimum cross reactivity, coupled to horseradish peroxidase (Jackson Immunoresearch), at 1 μg/ml in blocking buffer for a further 1 hour at room temperature with shaking. After a final 3 washes in PBS/Tween and single wash in PBS, 200 μl of K-blue chromogenic substrate was added to each well. After a carefully controlled period, accurate to 5 seconds, equal for all wells, the reaction was stopped by the addition of 50 μl 2M HCl and the colour read at 450 nm. Results are reported for each isotype as the mean titre (that is, the dilution of serum which yielded 50% of the maximal signal) as well as the mean signal at that titre (since the maximum absorbance in many cases was considerably below full scale deflection).
Blood samples were also taken at baseline, immediately prior to beginning the drug treatments, and also after 90 days, and serum prepared exactly as in Example 5. The level of anti-carbohydrate antibodies was then measured by direct ELISA using the procedure given in Example 5.

[3] = Tamoxifen 20 mg once daily, aspirin 75 mg once daily, mean ± SD
[4] = neat serum, Tamoxifen 20 mg once daily, aspirin 75 mg once daily, mean ± SD

Row | SMILES | Level of mRNA, estimated by qPCR: tgfb2 (tgfb2 mRNA; 10 μM A) [fold-change] | Level of mRNA, estimated by qPCR: tgfb2 (tgfb2 mRNA; 33 μM A) [fold-change] | Level of mRNA, estimated by qPCR: tgfb2 (tgfb2 mRNA; 100 μM A) [fold-change] | concentrations toxic to the cells ([1]; after 24 hrs) | doses toxic to the cells ([1]; after 72 hrs) | IgA titre, change versus baseline [2, 3] | IgD titre, change versus baseline [2, 3] | IgG2 titre, change versus baseline [2, 3] | IgM titre, change versus baseline [2, 3] | absorbance of the IgA class anti-carbohydrate antibodies (in words) ([2]; Example 6) | titre of IgD class anti-carbohydrate antibodies (in words) ([2]; Example 6) | titre of the IgG2 class anti-carbohydrate antibodies (in words) ([2]; Example 6) | IgA Absorbance, change versus baseline [2, 4] | IgD Absorbance, change versus baseline [2, 4] | IgG2 Absorbance, change versus baseline [2, 4] | IgM Absorbance, change versus baseline [2, 4]
1 | CC(=O)Oc1ccccc1C(=O)O [Aspirin, acetylsalicylic acid] | 0.92 ± 0.10 | 1.00 ± 0.17 | 1.03 ± 0.16 | – | – | – | – | – | – | – | – | – | – | – | – | –
2 | CC/C(=C(\c1ccccc1)c1ccc(OCCN(C)C)cc1)c1ccccc1 [Tamoxifen] | – | – | – | above 33 μM | above 10 μM | +14% ± 52% | −234% ± 113% | +176% ± 43% | +16% ± 28% | statistically significantly increased | statistically significantly reduced | statistically significantly increased | 0.31 ± 0.17 | −0.82 ± 0.51 | +0.61 ± 0.17 | −0.29 ± 0.36
